# Data: paper PMC5538713, “RORγt and RORα signature genes in human Th17 cells” (PLoS ONE, 2017)
# Key:
# GAL2 (h) = target: T1, GAL2 (h) (Homo sapiens, UniProt O43603); test: Cerep selectivity panel; type: binding
# T1 construct: purchased Cerep
# How it was run: (§1)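 Panel profiling: compound added at 1 µM or 10 µM, activity assessed against 50 receptors, ion channels and transporters.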
# human RORγt LBD = target: T2, human RORγt LBD (Homo sapiens, UniProt P51449); test: RORγt cellular reporter assay (GAL4-RORγt LBD luciferase, HEK293T); type: cell-based; conditions: 24 hours, read-out: RORγ/γt Cellular Reporter Assay (IC50)
# T2 construct: expressed in transfected cells; host or cells: HEK293T
# Method: Media was removed and cells were lysed with 50 μL 1x Glo Lysis Buffer (Promega). […] To calculate the effect of compounds on RORγt activity, the ratio of firefly to renilla luciferase was determined and plotted against compound concentration. Agonist compounds increase RORγt-driven luciferase expression, and antagonist or inverse agonist compounds decrease luciferase expression. IC50 values were determined using Graphpad Prism.
# RORγ/γt LBD = target: T3, RORγ/γt LBD (Homo sapiens, UniProt P51449); test: ThermoFluor binding assay, RORγ/γt LBD; conditions: recombinant human LBD; read-out: ThermoFlour Binding Assay (Kd, nM) RORγ/γt
# T3 construct: made in house; host or cells: E. coli BL21DE3 GOLD, pET24a
# Method: Recombinant human RORγ, RORα and RORβ LBD proteins were prepared for ThermoFlour binding assay. […] All recombinant proteins contained an additional amino acid sequence of [sequence] at the N-terminal of LBD. After transformation of the bacteria strain BL21DE3 GOLD (Agilent) with the plasmids, 10 to 20 L cultures were grown to 1 OD and recombinant protein expression was induced overnight at 16°C with 0.2mM isopropyl-beta-D-thiogalactopyranoside (IPTG) (Corning). […] His-tagged proteins were collected with Ni-NTA resin (Qiagen) and purified with a HiTrap Q HP column (GE Life Sciences) eluted with a 40 CV gradient of 50-500mM NaCl.
# The ThermoFluor® assay was established to measure the change in protein stability upon binding with compounds. 1-Anilinonaphthalene-8-Sulfonic Acid (1,8-ANS) (Invitrogen) was used as a fluorescent dye to label the test proteins. […] Assay plates were robotically loaded onto a thermostatically controlled PCR-type thermal block and then heated at a ramp-rate of 1°C/min. Fluorescence emission was initiated by continuous illumination with UV light (LC6, Hamamatsu) via fiber optic with a band-pass filter (380–400 nm) and detected with a CCD camera (Sensys, Roper Scientific) filtered to detect signal of 500 ± 25 nm. […]
# Aa1 = test: Cerep selectivity panel; type: binding
# Aa2 = test: Cerep selectivity panel; type: binding
# 5HT1B = target: T4, 5HT1B (Rattus norvegicus, UniProt P28564); test: Cerep selectivity panel; type: binding
# T4 construct: purchased Cerep
# How it was run: as §1
# VIP 1 (h) = target: T5, VIP 1 (h) (Homo sapiens, UniProt P32241); test: Cerep selectivity panel; type: binding
# T5 construct: purchased Cerep
# How it was run: as §1
# 5HT1A (h) = target: T6, 5HT1A (h) (Homo sapiens, UniProt P08908); test: Cerep selectivity panel; type: binding
# T6 construct: purchased Cerep
# How it was run: as §1
# RORγt transcripts = test: RT-PCR of RORγt transcripts in human CD4 T cells during Th17 differentiation; type: cell-based; conditions: 0.1 and 0.5 μM, throughout the time course (2 hours to 6 days)
# Method: Human CD4 T cells from 2 healthy donors were used in studies. 5.0 × 10^6 human CD4 T cells were used per sample and cell samples were collected at 0, 24 and 48 hours of Th17 differentiation for gene expression studies with RNA-Seq and RT-PCR.
# Expression of RORα, RORγt and IL-17A genes in siRNA or compound treated human Th17 cells was measured by quantitative RT-PCR using the TaqMan RNA-to-Ct 1 step kit (Applied Biosystems) following the manufacturer’s instructions. […] Real time PCR was performed using 600ng total RNA as template in the ABI PRISM 7500 Sequence Detection System (Applied Biosystems), with reaction starting at 48°C for 15 minutes, then 10 minutes at 95°C, followed by 40 cycles of 15 seconds at 95°C and 1 minute at 60°C.
# PCR results were analyzed with the ddCT algorithm [34] to generate data on relative quantitation and changes in gene expression.
# IL-17A transcripts = test: RT-PCR of IL-17A transcripts in human CD4 T cells during Th17 differentiation; type: cell-based; conditions: 0.5 μM compound
# Method: Human CD4 T cells from 2 healthy donors were used in studies. […]
# For compound treatment, CD4 T cells were pre-treated with compounds or DMSO vehicle control at 37°C for 1 hour before T cell activation.
# For siRNA treatment, three RORγt siRNAs, two RORα siRNAs, two control siRNAs were tested at 1 μM, and mock transfected samples were included as controls (S1 Table). siRNA treatment was performed by Amaxa electroporation of human CD4 T cells with siRNAs. Human CD4 T cells were taken up in 100 μL Nucleofector solution (P3 primary cell 4D Nucleofector Kit, reference V4XP-3024, Amaxa Biosciences) at 5.0 × 10^6 cells/100 μL. Cell suspensions were transfected with siRNA by electroporation using the FI-115 program in the Amaxa 4D-Nucleofector. T cells after electroporation were rinsed with 500 μL culture medium, transferred to 24-well culture plates and kept at 37°C cell incubator before use in T cell assays. It was noticed that Amaxa electroporation caused an increased expression of some genes in human T cells and this elevated gene expression lasted up to 8 hours after electroporation. To avoid gene expression study interfered by electroporation, human CD4 T cells were rested in culture medium at 37°C for 8 hours after siRNA electroporation before the use of these cells to initiate Th17 differentiation for transcriptome profile.
# T cells after compound or siRNA treatments were stimulated with anti-CD3/anti-CD28 coated beads (Miltenyi Biotech) at 2:1 bead to cell ratio in culture medium containing 10 ng/ml IL1β (R&D), 10 ng/ml IL23 (R&D), 30 ng/ml TGFβ1 (R&D), 10 μg/ml of anti-IL4 and anti-IFNγ (eBioscience). T cell cultures were collected at different time points for RNA extraction and gene expression studies.
# Expression of RORα, RORγt and IL-17A genes in siRNA or compound treated human Th17 cells was measured by quantitative RT-PCR using the TaqMan RNA-to-Ct 1 step kit (Applied Biosystems) following the manufacturer’s instructions. […]
# PCR results were analyzed with the ddCT algorithm to generate data on relative quantitation and changes in gene expression.
# H2 (h) = target: T7, H2 (h) (Homo sapiens, UniProt P25021); test: Cerep selectivity panel; type: binding
# T7 construct: purchased Cerep
# How it was run: as §1
# CCKA (h) = target: T8, CCKA (h) (Homo sapiens, UniProt P32238); test: Cerep selectivity panel; type: binding
# T8 construct: purchased Cerep
# How it was run: as §1
# T6 sequence (P08908 whole entry): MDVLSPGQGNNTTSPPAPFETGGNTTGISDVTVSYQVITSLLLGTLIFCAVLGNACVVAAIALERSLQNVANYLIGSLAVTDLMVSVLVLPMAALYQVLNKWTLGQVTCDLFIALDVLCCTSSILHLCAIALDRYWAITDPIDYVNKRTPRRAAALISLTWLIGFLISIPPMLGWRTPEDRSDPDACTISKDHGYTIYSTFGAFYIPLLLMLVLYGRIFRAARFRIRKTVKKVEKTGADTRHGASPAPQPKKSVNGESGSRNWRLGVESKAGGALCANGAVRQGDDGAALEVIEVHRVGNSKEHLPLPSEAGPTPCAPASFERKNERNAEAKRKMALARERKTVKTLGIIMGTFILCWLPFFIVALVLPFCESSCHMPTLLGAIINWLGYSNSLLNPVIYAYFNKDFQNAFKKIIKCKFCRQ
# T1 sequence (O43603 whole entry): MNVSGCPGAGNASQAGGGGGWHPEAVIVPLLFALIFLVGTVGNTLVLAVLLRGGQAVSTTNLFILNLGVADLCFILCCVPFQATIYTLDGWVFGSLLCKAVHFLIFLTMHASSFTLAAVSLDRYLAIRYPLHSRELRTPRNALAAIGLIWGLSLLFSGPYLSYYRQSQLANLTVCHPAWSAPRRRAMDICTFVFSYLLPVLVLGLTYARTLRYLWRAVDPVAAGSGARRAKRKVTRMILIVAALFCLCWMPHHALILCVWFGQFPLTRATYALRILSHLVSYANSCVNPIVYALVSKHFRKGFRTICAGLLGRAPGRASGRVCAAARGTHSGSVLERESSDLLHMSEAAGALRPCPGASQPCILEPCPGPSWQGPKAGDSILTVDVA
# T8 sequence (P32238 whole entry): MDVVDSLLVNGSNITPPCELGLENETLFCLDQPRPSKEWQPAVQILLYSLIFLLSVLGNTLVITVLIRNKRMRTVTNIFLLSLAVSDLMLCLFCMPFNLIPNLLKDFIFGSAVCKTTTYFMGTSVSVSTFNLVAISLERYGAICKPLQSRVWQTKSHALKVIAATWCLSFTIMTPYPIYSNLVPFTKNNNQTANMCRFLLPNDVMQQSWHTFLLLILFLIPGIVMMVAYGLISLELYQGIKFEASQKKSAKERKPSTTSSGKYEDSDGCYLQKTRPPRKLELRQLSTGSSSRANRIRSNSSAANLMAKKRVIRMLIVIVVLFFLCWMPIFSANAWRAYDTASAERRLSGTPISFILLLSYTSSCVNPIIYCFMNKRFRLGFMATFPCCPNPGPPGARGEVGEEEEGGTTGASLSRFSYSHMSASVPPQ
# T2 sequence (P51449 269-508 limits assumed): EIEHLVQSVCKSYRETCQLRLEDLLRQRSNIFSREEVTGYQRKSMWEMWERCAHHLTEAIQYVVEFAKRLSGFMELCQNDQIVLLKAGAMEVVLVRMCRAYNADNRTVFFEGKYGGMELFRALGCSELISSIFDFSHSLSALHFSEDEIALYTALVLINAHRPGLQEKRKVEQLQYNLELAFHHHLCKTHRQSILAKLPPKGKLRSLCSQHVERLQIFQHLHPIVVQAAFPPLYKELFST
# T5 sequence (P32241 31-457): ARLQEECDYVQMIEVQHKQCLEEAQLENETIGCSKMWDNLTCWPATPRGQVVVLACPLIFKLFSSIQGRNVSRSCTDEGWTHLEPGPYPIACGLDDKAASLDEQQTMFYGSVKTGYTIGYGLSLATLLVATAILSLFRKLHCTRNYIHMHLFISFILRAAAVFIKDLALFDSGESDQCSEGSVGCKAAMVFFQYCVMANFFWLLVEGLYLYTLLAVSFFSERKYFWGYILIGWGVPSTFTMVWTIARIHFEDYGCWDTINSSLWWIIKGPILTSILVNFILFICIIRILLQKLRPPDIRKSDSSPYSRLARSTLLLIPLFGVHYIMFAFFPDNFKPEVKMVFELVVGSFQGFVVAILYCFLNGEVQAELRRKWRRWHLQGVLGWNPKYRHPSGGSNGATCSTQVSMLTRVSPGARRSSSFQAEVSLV
# T7 sequence (P25021 whole entry): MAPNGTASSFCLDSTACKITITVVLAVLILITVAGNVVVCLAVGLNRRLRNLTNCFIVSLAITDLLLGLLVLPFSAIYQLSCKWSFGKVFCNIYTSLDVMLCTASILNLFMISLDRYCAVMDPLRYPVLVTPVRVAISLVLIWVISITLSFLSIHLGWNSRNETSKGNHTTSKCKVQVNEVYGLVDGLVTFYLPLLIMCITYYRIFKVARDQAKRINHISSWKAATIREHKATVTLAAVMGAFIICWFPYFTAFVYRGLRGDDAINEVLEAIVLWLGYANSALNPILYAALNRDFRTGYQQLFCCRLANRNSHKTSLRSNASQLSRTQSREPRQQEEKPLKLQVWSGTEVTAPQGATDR
# T3 sequence (P51449 258-518): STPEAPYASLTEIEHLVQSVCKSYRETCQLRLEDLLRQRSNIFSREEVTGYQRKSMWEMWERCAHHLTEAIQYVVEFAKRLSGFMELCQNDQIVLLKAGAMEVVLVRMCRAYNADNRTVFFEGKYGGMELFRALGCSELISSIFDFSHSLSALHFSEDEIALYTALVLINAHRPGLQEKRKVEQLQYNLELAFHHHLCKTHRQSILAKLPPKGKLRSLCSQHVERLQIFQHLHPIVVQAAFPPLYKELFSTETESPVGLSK
# T4 sequence (P28564 whole entry): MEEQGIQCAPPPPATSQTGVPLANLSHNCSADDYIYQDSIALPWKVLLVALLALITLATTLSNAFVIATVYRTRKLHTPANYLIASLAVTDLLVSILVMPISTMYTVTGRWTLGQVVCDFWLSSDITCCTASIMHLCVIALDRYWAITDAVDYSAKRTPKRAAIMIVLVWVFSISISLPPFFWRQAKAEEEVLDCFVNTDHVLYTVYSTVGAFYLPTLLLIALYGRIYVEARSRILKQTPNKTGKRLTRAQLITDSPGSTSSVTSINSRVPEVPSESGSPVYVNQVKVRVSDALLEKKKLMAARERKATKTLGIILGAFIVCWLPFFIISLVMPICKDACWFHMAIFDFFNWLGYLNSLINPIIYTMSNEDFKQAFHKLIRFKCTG
structure (smiles),measurement,setting,value
COc1nc2ccc([C@](O)(c3ccc(Cl)cc3)c3cncn3C)cc2c(Cl)c1Cc1ccc(-n2cccn2)cc1 [B],inhibition at 10 µM,GAL2 (h),1%
COc1nc2ccc([C@@](O)(c3ccccc3)C3CCN(C(C)=O)CC3)cc2c(Cl)c1Cc1ccc(-n2cccn2)cc1 [C],IC50,human RORγt LBD,0.0289 µM
same,Kd,RORγ/γt LBD,4.4 nM
COc1nc2ccc([C@@](O)(c3ccc(C)nc3C)c3cnnn3C)cc2c(Cl)c1Cc1ccc(C(F)(F)F)cc1 [compound A],% Inhibition at 1µM,Aa1; 1 µM,8%
same,% Inhibition at 10µM,Aa1; 10 µM,5%
same,% Inhibition at 10µM,Aa2,7%
same,inhibition at 10 µM,5HT1B,1%
same,inhibition at 1 µM,VIP 1 (h),3%
same,inhibition at 1 µM,5HT1A (h); 1 µM,14%
same,inhibition at 10 µM,5HT1A (h); 10 µM,19%
CN(C)c1nc2ccc(C(O)(c3ccncc3)c3cncn3C)cc2c(Cl)c1-c1ccccc1 (stereo not shown) [compound D],effect on RORγt expression in T cells,RORγt transcripts,did not affect
same,reduction of IL-17A transcripts,IL-17A transcripts; 24 hours,79%
same,reduction of IL-17A transcripts,IL-17A transcripts; 72 hours,73%
same,decrease of IL-17A transcripts,IL-17A transcripts; day 6,67%
same,inhibition at 10 µM,H2 (h),5%
same,inhibition at 1 µM,CCKA (h),11%
